Values quoted from earlier work as cited in patent publication US4665086A, “Method for minimizing disturbances in circadian rhythms of bodily performance and function” (priority 1983, dated 1987).

What was measured:
[1] = tested on: melatonin synthesis; conditions: rats, exogenous administration; cited from earlier work
[2] = tested on: laboratory animals; conditions: chronic administration, cited from earlier work; for effect on rhythm (splitting): monoamine oxidase inhibitors
[3] = tested on: endogenous melatonin secretion; conditions: beta blocker; cited from earlier work

| SMILES | effect on unentrained, free-running period [2] | effect on rhythm (splitting) [2] | also measured |
| --- | --- | --- | --- |
| N[C@@H](Cc1ccc(O)c(O)c1)C(=O)O [L-dopa] |  |  | effect on melatonin synthesis [1]: stimulates melatonin synthesis |
| [Li] [lithium] | lengthens the unentrained, free-running period |  |  |
| CC(C)NC[C@H](O)COc1cccc2ccccc12 (racemic) [PROPANOLOL] |  |  | effect on endogenous melatonin secretion [3]: can inhibit endogenous melatonin secretion |
| C#CCN(C)CCCOc1ccc(Cl)cc1Cl [clorgyline] | lengthens the unentrained, free-running period | split the rhythm |  |
| [2H]O[2H] [heavy water (D2 O)] | lengthens the unentrained, free-running period |  |  |
| CN(C)CCCN1c2ccccc2CCc2ccccc21 [imipramine] | lengthens the unentrained, free-running period | split the rhythm |  |
